In brackets after ≈: the same amount, converted by molar mass. Read-outs that look alike come from different tables or passages of the source.
Assays:
[1] = tested on: rhinovirus type 2 (RV-2); assay: Tissue culture testing, rhinovirus type 2 in HeLa cells; format: cell-based; conditions: 48 and 72 hours, NA = not active at the standard test conditions; for EC50: Enterovirus, read-out: RV-2: lowest concentration of the compound necessary to cause a 50 percent reduction in cytopathic effect
Procedure: (§1) Monolayered HeLa cells in 16 millimeter (mm) tissue culture dishes were treated with 1 ml of culture medium (Eagles medium supplemented with fetal calf serum) containing subject compound at an appropriate concentration or containing no compound at all. Culture media such as those described herein are more fully described in standard texts, as for example, Kuchler's Biochemical Methods in Cell Culture and Virology, Dowden, Hutchinson and Ross, Inc., Stroudsberg, PA (1977). Following treatment, cells were challenged with 0.05 ml of rhinovirus type 1A (RV-1A), rhinovirus type 2 (RV-2) or Coxsackie A21 virus (Cox A21) in culture medium. Some of the compounds were also tested against rhinovirus type 5 (RV-5), rhinovirus type 8 (RV-8) or rhinovirus type 64 (RV-64). Cell controls received no viruses.
(§2) ^2 Lowest concentration of the compound (μg/ml) necessary to cause

[2] = tested on: Coxsackie A21 virus; assay: Continuous Oral Feeding test in mice challenged IP with Coxsackie A21 virus; format: in vivo; conditions: for Continuous Oral Feeding X^2 (chi-square, deaths vs control): 0.06 % in diet, 240 h; for Continuous Oral Feeding: toxicity of the test compound at the indicated dosage: 0.06% in diet, "toxic" = significantly toxic at the indicated dosage
Procedure: Some of the compounds were also tested in animals utilizing the following procedure, hereainafter referred to as the "Continuous Oral Feeding" test. Coxsackie A21 virus grown on HeLa cells was administered at a concentration that produces 80 to 100% deaths in mice weighing 8 to 12 grams within 10 days, when the mice are injected (IP) with 0.2 ml of virus preparation. Mice were placed on diets containing test compound dispersed in plain commercially available rodent mash chow at a concentration of 0.06% (weight percent) on day 0. On day 1 the mice were challenged with the virus preparation, 0.2 ml/mouse, (IP). Deaths in both control and experimental groups were recorded for the 10 days and the results analyzed by a chi-square (.chi.^2) test. Chi-square values greater than 3.84 indicate the compound is active (95% confidence level).

[3] = tested on: rhinovirus type 1A (RV-1A); assay: Tissue culture testing, rhinovirus type 1A in HeLa cells; format: cell-based; conditions: 48 and 72 hours, NA = not active at the standard test conditions; for EC50: Enterovirus, read-out: RV-1A: lowest concentration of the compound necessary to cause a 50 percent reduction in cytopathic effect
Procedure: as §1, §2

[4] = Cytotoxicity in tissue culture testing (HeLa monolayers); format: cell-based; conditions: human, HeLa cells
Procedure: as §1
^1 Cytotoxicity figures represent the concentration of the compound, […]

[5] = tested on: Coxsackie A21 virus (Cox A21); assay: Tissue culture testing, Coxsackie A21 virus in HeLa cells; format: cell-based; conditions: 48 and 72 hours, NA = not active at the standard test conditions; for EC50: read-out: Cox A21: lowest concentration of the compound necessary to cause a 50 percent reduction in cytopathic effect
Procedure: as §1, §2

[6] = observed at 48 and 72 hours post-treatment, read-out: Cytotoxicity: concentration of the compound found to be toxic to the cell

Row | Structure (SMILES) | EC50 [1] | EC50 [3] | EC50 [5] | Continuous Oral Feeding X^2 (chi-square, deaths vs control) [2] | MCC [4, 6] | Continuous Oral Feeding: toxicity of the test compound at the indicated dosage [2] | MCC ([4]; GI = growth inhibition, read-out: Cytotoxicity: concentration at which the compound inhibited the growth of the tissue culture (GI)) | Cox A21: lowest concentration of the compound necessary to cause a 50 percent reduction in cytopathic effect [5] | RV-2: lowest concentration of the compound necessary to cause a 50 percent reduction in cytopathic effect [1] | RV-1A: lowest concentration of the compound necessary to cause a 50 percent reduction in cytopathic effect [3]
1 | CC(=O)c1ccc(Oc2ccc(S(C)(=O)=O)cn2)cc1 [Example 34, 1-(4-((5-(methylsulfonyl)-2-pyridinyl)oxy)phenyl)ethanone] | 12.5 mg/L (≈ 42.9 µM) | 25 mg/L (≈ 85.8 µM) | – | 1.727 | > 50 µg/mL | – | – | – | – | –
2 | CS(=O)(=O)c1cccc(Oc2ccc(Br)cc2)n1 [Example 70, 2-(4-bromophenoxy)-6-(methylsulfonyl)pyridine] | 25 mg/L (≈ 76.2 µM) | 25 mg/L (≈ 76.2 µM) | – | 0.035 | 25 µg/mL | – | – | – | – | –
3 | CC(=O)c1ccc(Oc2ccc(S(=O)(=O)C(C)C)cn2)cc1 [Example 52, 1-(4-((5-((1-methylethyl)sulfonyl)-2-pyridinyl)oxy)phenyl)ethanone] | 50 mg/L (≈ 157 µM) | 50 mg/L (≈ 157 µM) | 25 mg/L (≈ 78.3 µM) | 1.140 | ≥ 50 µg/mL | – | – | – | – | –
4 | CC(C)(C)c1ccc(Oc2ccc(S(C)(=O)=O)cn2)cc1 [Example 33, 2-(4-(1,1-dimethylethyl)phenoxy)-5-(methylsulfonyl)pyridine] | 12.5 mg/L (≈ 40.9 µM) | – | – | 4.042 | > 100 µg/mL | – | – | – | – | –
5 | O=S(=O)(c1ccc(Oc2ccc(Br)cc2)nc1)C1CCCCC1 [Example 57, 2-(4-bromophenoxy)-5-(cyclohexylsulfonyl)pyridine] | 25 mg/L (≈ 63.1 µM) | 25 mg/L (≈ 63.1 µM) | 6.25 mg/L (≈ 15.8 µM) | – | 50 µg/mL | – | – | – | – | –
6 | CS(=O)(=O)c1cccc(Oc2ccc(Cl)c(Cl)c2)n1 [Example 67, 2-(3,4-dichlorophenoxy)-6-(methylsulfonyl)pyridine] | 12.5 mg/L (≈ 39.3 µM) | 3.12 mg/L (≈ 9.82 µM) | ~50 mg/L (≈ 157 µM) | 7.39 | 50 µg/mL | toxic | – | – | – | –
7 | CSc1ccc(Oc2ccc(S(C)(=O)=O)cn2)cc1 [Example 37, 2-(4-(methylthio)phenoxy)-5-(methylsulfonyl)pyridine] | < 2 mg/L | < 3 mg/L | 3 mg/L (≈ 10.2 µM) | – | > 50 µg/mL | – | – | – | – | –
8 | C[S+]([O-])c1cncc(Oc2ccc(Cl)c(Cl)c2)c1 (stereo not drawn) [Example 76, 3-(3,4-dichlorophenoxy)-5-(methylsulfinyl)pyridine] | 6.25 mg/L (≈ 20.7 µM) | 12.5 mg/L (≈ 41.4 µM) | 25 mg/L (≈ 82.7 µM) | – | 25 µg/mL | – | – | – | – | –
9 | CCS(=O)(=O)c1ccc(Oc2cc(Cl)c(Cl)cc2Cl)nc1 [Example 48, 5-(ethylsulfonyl)-2-(2,4,5-trichlorophenoxy)pyridine] | 3.12 mg/L (≈ 8.52 µM) | < 3.12 mg/L | 6.25 mg/L (≈ 17 µM) | – | > 50 µg/mL | – | – | – | – | –
10 | CS(=O)(=O)c1cccnc1Oc1ccc(C(=O)c2ccccc2)cc1 [Example 72, (4-((3-(methylsulfonyl)-2-pyridinyl)oxy)phenyl)phenylmethanone] | 25 mg/L (≈ 70.7 µM) | 25 mg/L (≈ 70.7 µM) | 12.5 mg/L (≈ 35.4 µM) | – | 25 µg/mL | – | – | – | – | –
11 | CS(=O)(=O)c1ccc(Oc2ccc(Oc3ccccc3)cc2)nc1 [Example 28, 5-(methylsulfonyl)-2-(4-phenoxyphenoxy)pyridine] | 25 mg/L (≈ 73.2 µM) | – | 50 mg/L (≈ 146 µM) | 6.249 | > 100 µg/mL | toxic | – | – | – | –
12 | CCS(=O)(=O)c1ccc(Oc2ccc3c(c2)OCO3)nc1 [Example 41, 5-(ethylsulfonyl)-2-(3,4-methylenedioxyphenoxy)pyridine] | 25 mg/L (≈ 81.3 µM) | – | – | – | ≥ 50 µg/mL | – | – | – | – | –
13 | O=C(c1ccccc1)c1ccc(Oc2ccc(S(=O)(=O)Cc3ccccc3)cn2)cc1 [Example 62, phenyl(4-((5-((phenylmethyl)sulfonyl)-2-pyridinyl)oxy)phenyl)methanone] | – | 25 mg/L (≈ 58.2 µM) | < 3.12 mg/L | 0.066 | – | – | 50 µg/mL | – | – | –
14 | CCCCCCS(=O)(=O)c1ccc(Oc2ccc(Br)cc2)nc1 [Example 53, 2-(4-bromophenoxy)-5-(n-hexylsulfonyl)pyridine] | 25 mg/L (≈ 62.8 µM) | 25 mg/L (≈ 62.8 µM) | 12.5 mg/L (≈ 31.4 µM) | 2.925 | > 50 µg/mL | – | – | – | – | –
15 | O=C(c1ccccc1)c1ccc(Oc2ccc(S(=O)(=O)C3CCCCC3)cn2)cc1 [Example 59, (4-((5-(cyclohexylsulfonyl)-2-pyridinyl)oxy)phenyl)phenylmethanone] | 12.5 mg/L (≈ 29.7 µM) | 3.12 mg/L (≈ 7.41 µM) | < 3.12 mg/L | – | 12.5 µg/mL | – | – | – | – | –
16 | CC(=O)c1ccc(Oc2cccc(S(C)(=O)=O)n2)cc1 [1-(4-((6-(methylsulfonyl)-2-pyridinyl)oxy)phenyl)ethanone] | – | – | – | – | – | – | – | not active | not active | not active

Continued, in another order:

Row | EC50 [1] | EC50 [3] | EC50 [5] | Structure (SMILES) | Continuous Oral Feeding X^2 (chi-square, deaths vs control) [2] | MCC [4, 6] | Continuous Oral Feeding: toxicity of the test compound at the indicated dosage [2] | MCC ([4]; GI = growth inhibition, read-out: Cytotoxicity: concentration at which the compound inhibited the growth of the tissue culture (GI)) | Cox A21: lowest concentration of the compound necessary to cause a 50 percent reduction in cytopathic effect [5] | RV-2: lowest concentration of the compound necessary to cause a 50 percent reduction in cytopathic effect [1] | RV-1A: lowest concentration of the compound necessary to cause a 50 percent reduction in cytopathic effect [3]
17 | 25 mg/L (≈ 78.6 µM) | 25 mg/L (≈ 78.6 µM) | < 3.12 mg/L | CS(=O)(=O)c1ccnc(Oc2ccc(Cl)c(Cl)c2)c1 [Example 65, 2-(3,4-dichlorophenoxy)-4-(methylsulfonyl)pyridine] | – | 50 µg/mL | – | – | – | – | –
18 | 12.5 mg/L (≈ 32.2 µM) | 12.5 mg/L (≈ 32.2 µM) | – | CCCCCCS(=O)(=O)c1ccc(Oc2ccc(Cl)c(Cl)c2)nc1 [Example 54, 2-(3,4-dichlorophenoxy)-5-(n-hexylsulfonyl)pyridine] | 0.162 | > 50 µg/mL | – | – | – | – | –
19 | 12.5 mg/L (≈ 39.3 µM) | 12.5 mg/L (≈ 39.3 µM) | 12.5 mg/L (≈ 39.3 µM) | CS(=O)(=O)c1cc(Oc2ccc(Cl)c(Cl)c2)ccn1 [Example 66, 4-(3,4-dichlorophenoxy)-2-(methylsulfonyl)pyridine] | – | 25 µg/mL | – | – | – | – | –
20 | 12.5 mg/L (≈ 39.3 µM) | 6.25 mg/L (≈ 19.6 µM) | 3.12 mg/L (≈ 9.82 µM) | CS(=O)(=O)c1cncc(Oc2ccc(Cl)c(Cl)c2)c1 [Example 77, 3-(3,4-dichlorophenoxy)-5-(methylsulfonyl)pyridine] | – | > 50 µg/mL | – | – | – | – | –
21 | 6.25 mg/L (≈ 21.8 µM) | 6.25 mg/L (≈ 21.8 µM) | 3.12 mg/L (≈ 10.9 µM) | CSc1cncc(Oc2ccc(Cl)c(Cl)c2)c1 [Example 75, 3-(3,4-dichlorophenoxy)-5-(methylthio)pyridine] | – | 6.25 µg/mL | – | – | – | – | –
22 | 12.5 mg/L (≈ 32.4 µM) | 25 mg/L (≈ 64.7 µM) | 25 mg/L (≈ 64.7 µM) | O=S(=O)(c1ccc(Oc2ccc(Cl)c(Cl)c2)nc1)C1CCCCC1 [Example 58, 2-(3,4-dichlorophenoxy)-5-(cyclohexylsulfonyl)pyridine] | – | 50 µg/mL | – | – | – | – | –
23 | 50 mg/L (≈ 157 µM) | 25 mg/L (≈ 78.6 µM) | 50 mg/L (≈ 157 µM) | CS(=O)(=O)c1cccnc1Oc1ccc(Cl)c(Cl)c1 [Example 71, 2-(3,4-dichlorophenoxy)-3-(methylsulfonyl)pyridine] | – | 50 µg/mL | – | – | – | – | –
24 | 25 mg/L (≈ 75.3 µM) | 25 mg/L (≈ 75.3 µM) | – | CCS(=O)(=O)c1cccnc1Oc1ccc(Cl)c(Cl)c1 [Example 73, 2-(3,4-dichlorophenoxy)-3-(ethylsulfonyl)pyridine] | – | 25 µg/mL | – | – | – | – | –
